Results reported in patent publication US10370404B2, “Protoescigenin derivative, process of its preparation, use of said compound and pharmaceutical composition comprising that compound” (Warszawski Uniwersytet Medyczny, priority 2015, dated 2019).

Tests used:
[1] = system: Human Umbilical Vein Endothelial Cells (HUVEC); assay: HUVEC cell migration assay; assay type: cell-based; conditions: 2 μM; rhTNF-α 10 ng/ml
Procedure: (§1) Human Umbilical Vein Endothelial Cells (HUVEC) were cultured in the EBM-2 (Lonza) supplemented with endothelial growth supplement mix (EGM-2 SingleQuot Kit Supplements and Growth Factors, Lonza) and 2% foetal bovine serum under standard cell culture condition (37° C., 5% CO2). Cells were harvested using Accutase (PAA Laboratories). All described experiments were performed with cells of passage four from at least three donors. The cells were treated with the compound of the invention at 2 μM for 24 h with or without an additional of 6 h stimulation of recombinant human TNF-α (rhTNF-α, 10 ng/ml, R&D Systems).
The rate of cell migration was measured with the Angiogenesis System: Endothelial Cell Migration (BD Biosciences) strictly according to the manufacturer's instructions.
The rate of cell migration was measured with Angiogenesis System: Endothelial Cell Migration (BD Biosciences). Briefly, 90% confluent HUVEC were incubated with the compound of the invention at 2 μM concentration in a complete culture medium for 24 h, then starved for 4 h in a medium containing 0.1% serum. Following seeing on migration inserts ([…] in 250 μl of media containing the compound of the invention) HUVEC were stimulated with rhTNF-α (10 ng/ml, R&D Systems). […]

[2] = system: male Wistar rats (un-operated control group); assay: Un-operated control rats: thigh circumference, muscle weight, femoral bone length; assay type: in vivo, rat; conditions: sodium salt 10 mg/ml oral gavage, 4 weeks
Procedure: (§2) The below experiments were performed on male Wistar rats, at the age of 8-10 weeks, divided into two groups: the experimental group with surgically created side-to-side arterio-venous fistula between common femoral vessels (n=23) and a control group of un-operated animals (n=10). The experiment was approved by the local Bioethics Commission for experiments on animals, Warsaw 02-091, Żwirki i Wigury 61 (resolutions nr 11/2009 dated Jun. 23, 2009 and 46/12 dated Sep. 25, 2012).
Rats in the control group were also divided into two sub-groups, receiving no treatment (n=6) and receiving the compound of the invention (n=4). These animals were not subjected to any surgical procedure.
(§3) The rats in sub-groups receiving compound of the invention were treated for 4 weeks with the compound of the invention (E-38) in form of sodium salt (10 mg/ml, 13.7 mM) administered by oral gavage.
(§4) After 4 weeks, rats were sacrificed and measurements were conducted. Non-operated rats were fed during the whole experiment. Blood samples for serum analysis were collected before the animals were sacrificed. […]
(§5) After euthanasia, measurements of thigh circumference limbs of animals of the experimental and control groups were performed. […] Femoral bones were excised and their length was measured with an electronic slide clipper.
(§6) The results were expressed as arithmetic means and standard errors of the mean (SEM). […]

[3] = system: male Wistar rats with surgically created side-to-side arterio-venous fistula between common femoral vessels; assay: Rat arteriovenous fistula model of Parkes Weber syndrome: thigh circumference, muscle weight, femoral bone length; assay type: in vivo; conditions: sodium salt 10 mg/ml oral gavage, 4 weeks
Procedure: as §2
Rats in experimental group were divided into two sub-groups, receiving no treatment (n=14) and receiving compound of the invention (n=9). Each animal was subjected to following surgical operations.
After induction of general anesthesia longitudinal skin incision just below inguinal ligament was performed. […] After application of micro-vascular clamps on common femoral vessels longitudinal 2 mm±0.1 mm long incision on antero-lateral side of the vein and antero-medial side of the artery were performed. Afterwards side-to-side anastomosis between common femoral vessels was performed to create arteriovenous fistula (non-absorbable monofilament suture 10/0). Subsequently micro-vascular clamps were removed and arteriovenous fistula patency was checked and haemostasis was achieved. […] The resultant vein lumen corresponded to approximately 80-90% of the initial vein lumen. Next, subcutaneous tissue and skin were sutured with absorbable suture.
The above procedure results in obtaining an animal model of Parkes Weber syndrome, described in the European patent application EP14001527. Hereinafter, these limbs are referred to as AVF limbs.
The operation of the right hind limb (control limb) included skin incision, common femoral vessels dissection, and subcutaneous and skin suture (absorbable suture). Hereinafter, these limbs are referred to as sham-operated limbs.
Animals were fed for 1 week, than surgical procedures were conducted. After the operation, animals were fed and treated with the compound of the invention.
as §3, §4, §5, §6

[4] = system: Human Umbilical Vein Endothelial Cells (HUVEC); assay: HUVEC in vitro vascular permeability assay; assay type: cell-based; conditions: 2 μM for 24 h; rhTNF-α for the last 6 h
Procedure: as §1
The In Vitro Vascular Permeability Assay Kit (Chemicon) was used to determine HUVEC monolayer permeability. All the steps of the procedure were performed according to the manufacturer's instructions.
The In Vitro Vascular Permeability Assay Kit (Chemicon) was used to determine HUVEC monolayer permeability following 24 h treatment of the compound of the invention at 2 μM concentrations. The effect of rhTNF-α (R&D Systems), which was added to cell culture for the last 6 h of the incubation period, was also determined. The subsequent steps of the procedure were performed according to the manufacturer's instructions.

[5] = Biochemical analysis of the serum samples; assay type: in vivo, rat; conditions: control and experimental rats; sodium salt 10 mg/ml oral gavage, 4 weeks
Procedure: as §3
After 4 weeks, rats were sacrificed and measurements were conducted. Non-operated rats were fed during the whole experiment. Blood samples for serum analysis were collected before the animals were sacrificed. Biochemical analysis of the blood samples was conducted using biochemical analyzer Cobas 6000 (Roche, Hitachi).
In order to verify whether the administration of the compound of the invention results in any toxic effects influence in tested rats, the inventors conducted a set of basic biochemical tests of the serum isolated from the blood samples obtained from the control and experimental rats.
The conducted blood serum test included following parameters: glucose (GLUC), creatinin (CREA), urea (UREA), total protein (TP), uric acid (UA), amylase (AMYL), albumin (ALB), cholesterol (CHOL), triglicerides (TRIG), lipase (LIP), aspartate aminotransferase (AST), alanine aminotransferase (ALT), creatine kinase (CK).

[6] = left hind (AVF) limbs vs experimental group with no treatment

Compound: CC1(C)C[C@H]2C3=CCC4[C@@]5(C)CC[C@H](O)[C@](C)(CO)C5CC[C@@]4(C)[C@]3(C)C[C@@H](O)[C@@]2(COCc2cn(-c3ccc(C(=O)O)cc3)nn2)[C@@H](O)[C@@H]1O (some centres unmarked) [compound of the invention]
- TNF-α-induced cell migration [1]: reduced
- influence on measured parameters (thigh circumference, EDL and SOL muscle weight, femoral bone length) [2]: insignificant influence
- effect on measured parameters (thigh circumference, EDL and SOL muscle weight, femoral bone length) ([3]; AVF rats): reduction of the measured parameters to a very significant extent
- reduction of EDL muscle weight [3, 6]: approx. 59.2%
- reduction of SOL muscle weight [3, 6]: approx. 63.6%
- reduction of thigh circumference [3, 6]: approx. 12.5%
- TNF-α-induced endothelial cells permeability [4]: significantly decreased
- influence on blood serum parameters (GLUC, CREA, UREA, TP, UA, AMYL, ALB, CHOL, TRIG, LIP, AST, ALT, CK) [5]: no significant influence
